Measured values as given in the NIST ThermoML archive (doi:10.1016/j.jct.2012.03.031).
± gives the expanded uncertainty stated by the source.

Assay: molar heat capacity at constant pressure
Conditions: 101.33 kPa

CCCCc1ccc(C(=O)Oc2ccc(C#N)c(F)c2)cc1 [4-cyano-3-fluorophenyl 4-butylbenzoate]
Conditions | molar heat capacity at constant pressure [J/K/mol]
221.07 K, Crystal 2, Small (less than 1 g) adiabatic calorimetry | 311.55 ± 2.1
221.65 K, Crystal 1, Small (less than 1 g) adiabatic calorimetry | 297.64 ± 2
222.84 K, Crystal 1, Small (less than 1 g) adiabatic calorimetry | 299.23 ± 2.1
223.8 K, Crystal 2, Small (less than 1 g) adiabatic calorimetry | 314.36 ± 2.2
223.83 K, Crystal 1, Small (less than 1 g) adiabatic calorimetry | 300.59 ± 2.1
224.03 K, Crystal 1, Small (less than 1 g) adiabatic calorimetry | 300.76 ± 2.1
225.22 K, Crystal 1, Small (less than 1 g) adiabatic calorimetry | 302.28 ± 2.1
226.41 K, Crystal 1, Small (less than 1 g) adiabatic calorimetry | 303.96 ± 2.1
226.54 K, Crystal 2, Small (less than 1 g) adiabatic calorimetry | 317.16 ± 2.2
226.65 K, Crystal 1, Small (less than 1 g) adiabatic calorimetry | 304.49 ± 2.1
227.59 K, Crystal 1, Small (less than 1 g) adiabatic calorimetry | 305.68 ± 2.1
228.77 K, Crystal 1, Small (less than 1 g) adiabatic calorimetry | 307.52 ± 2.1
229.29 K, Crystal 2, Small (less than 1 g) adiabatic calorimetry | 320.04 ± 2.2
229.47 K, Crystal 1, Small (less than 1 g) adiabatic calorimetry | 308.62 ± 2.1
229.94 K, Crystal 1, Small (less than 1 g) adiabatic calorimetry | 309.12 ± 2.1
230 K, Crystal 1, Vacuum adiabatic calorimetry | 309.39 ± 1.9
230 K, Crystal 2, Vacuum adiabatic calorimetry | 320.68 ± 2
231.12 K, Crystal 1, Small (less than 1 g) adiabatic calorimetry | 310.59 ± 2.1
232.06 K, Crystal 2, Small (less than 1 g) adiabatic calorimetry | 322.55 ± 2.2
232.28 K, Crystal 1, Small (less than 1 g) adiabatic calorimetry | 312.29 ± 2.1
232.3 K, Crystal 1, Small (less than 1 g) adiabatic calorimetry | 312.7 ± 2.2
233.45 K, Crystal 1, Small (less than 1 g) adiabatic calorimetry | 313.85 ± 2.2
234.61 K, Crystal 1, Small (less than 1 g) adiabatic calorimetry | 315.48 ± 2.2
234.84 K, Crystal 2, Small (less than 1 g) adiabatic calorimetry | 325.57 ± 2.2
235.14 K, Crystal 1, Small (less than 1 g) adiabatic calorimetry | 316.89 ± 2.2
235.77 K, Crystal 1, Small (less than 1 g) adiabatic calorimetry | 317.02 ± 2.2
236.93 K, Crystal 1, Small (less than 1 g) adiabatic calorimetry | 318.75 ± 2.2
237.63 K, Crystal 2, Small (less than 1 g) adiabatic calorimetry | 328.79 ± 2.3
238.05 K, Crystal 1, Small (less than 1 g) adiabatic calorimetry | 321.4 ± 2.2
238.08 K, Crystal 1, Small (less than 1 g) adiabatic calorimetry | 320.42 ± 2.2
239.23 K, Crystal 1, Small (less than 1 g) adiabatic calorimetry | 322.04 ± 2.2
240 K, Crystal 1, Vacuum adiabatic calorimetry | 324.53 ± 2
240 K, Crystal 2, Vacuum adiabatic calorimetry | 332.29 ± 2
240.38 K, Crystal 1, Small (less than 1 g) adiabatic calorimetry | 323.67 ± 2.2
240.43 K, Crystal 2, Small (less than 1 g) adiabatic calorimetry | 332.92 ± 2.3
241.04 K, Crystal 1, Small (less than 1 g) adiabatic calorimetry | 326.21 ± 2.2
241.52 K, Crystal 1, Small (less than 1 g) adiabatic calorimetry | 325.48 ± 2.2
242.66 K, Crystal 1, Small (less than 1 g) adiabatic calorimetry | 327.48 ± 2.2
243.24 K, Crystal 2, Small (less than 1 g) adiabatic calorimetry | 336.05 ± 2.3
243.8 K, Crystal 1, Small (less than 1 g) adiabatic calorimetry | 328.63 ± 2.3
244.07 K, Crystal 1, Small (less than 1 g) adiabatic calorimetry | 330.21 ± 2.3
246.07 K, Crystal 1, Small (less than 1 g) adiabatic calorimetry | 331.47 ± 2.3
247.13 K, Crystal 1, Small (less than 1 g) adiabatic calorimetry | 334.86 ± 2.3
247.2 K, Crystal 1, Small (less than 1 g) adiabatic calorimetry | 333.06 ± 2.3
248.33 K, Crystal 1, Small (less than 1 g) adiabatic calorimetry | 334.82 ± 2.3
249.45 K, Crystal 1, Small (less than 1 g) adiabatic calorimetry | 336.63 ± 2.4
250 K, Crystal 1, Vacuum adiabatic calorimetry | 339.52 ± 2.1
250.22 K, Crystal 1, Small (less than 1 g) adiabatic calorimetry | 339.88 ± 2.3
250.57 K, Crystal 1, Small (less than 1 g) adiabatic calorimetry | 338.23 ± 2.3
251.69 K, Crystal 1, Small (less than 1 g) adiabatic calorimetry | 339.75 ± 2.3
252.81 K, Crystal 1, Small (less than 1 g) adiabatic calorimetry | 341.78 ± 2.4
253.35 K, Crystal 1, Small (less than 1 g) adiabatic calorimetry | 344.81 ± 2.4
253.92 K, Crystal 1, Small (less than 1 g) adiabatic calorimetry | 343.44 ± 2.4
255.03 K, Crystal 1, Small (less than 1 g) adiabatic calorimetry | 345.42 ± 2.4
256.14 K, Crystal 1, Small (less than 1 g) adiabatic calorimetry | 347.42 ± 2.4
256.51 K, Crystal 1, Small (less than 1 g) adiabatic calorimetry | 349.77 ± 2.4
257.24 K, Crystal 1, Small (less than 1 g) adiabatic calorimetry | 349.12 ± 2.4
258.34 K, Crystal 1, Small (less than 1 g) adiabatic calorimetry | 350.75 ± 2.4
259.44 K, Crystal 1, Small (less than 1 g) adiabatic calorimetry | 352.9 ± 2.4
259.7 K, Crystal 1, Small (less than 1 g) adiabatic calorimetry | 354.86 ± 2.5
260 K, Crystal 1, Vacuum adiabatic calorimetry | 355.31 ± 2.2
260.54 K, Crystal 1, Small (less than 1 g) adiabatic calorimetry | 354.79 ± 2.4
261.63 K, Crystal 1, Small (less than 1 g) adiabatic calorimetry | 356.59 ± 2.5
262.72 K, Crystal 1, Small (less than 1 g) adiabatic calorimetry | 358.59 ± 2.5
262.92 K, Crystal 1, Small (less than 1 g) adiabatic calorimetry | 359.67 ± 2.5
263.8 K, Crystal 1, Small (less than 1 g) adiabatic calorimetry | 360.46 ± 2.5
264.89 K, Crystal 1, Small (less than 1 g) adiabatic calorimetry | 362.63 ± 2.5
265.96 K, Crystal 1, Small (less than 1 g) adiabatic calorimetry | 364.99 ± 2.5
266.18 K, Crystal 1, Small (less than 1 g) adiabatic calorimetry | 364.4 ± 2.5
267.04 K, Crystal 1, Small (less than 1 g) adiabatic calorimetry | 367.18 ± 2.5
268.11 K, Crystal 1, Small (less than 1 g) adiabatic calorimetry | 369.24 ± 2.5
269.18 K, Crystal 1, Small (less than 1 g) adiabatic calorimetry | 371.72 ± 2.6
269.46 K, Crystal 1, Small (less than 1 g) adiabatic calorimetry | 369.89 ± 2.5
270 K, Crystal 1, Vacuum adiabatic calorimetry | 371.52 ± 2.3
270.25 K, Crystal 1, Small (less than 1 g) adiabatic calorimetry | 373.77 ± 2.6
271.31 K, Crystal 1, Small (less than 1 g) adiabatic calorimetry | 375.16 ± 2.6
272.37 K, Crystal 1, Small (less than 1 g) adiabatic calorimetry | 378.43 ± 2.6
272.76 K, Crystal 1, Small (less than 1 g) adiabatic calorimetry | 379.8 ± 2.6
273.42 K, Crystal 1, Small (less than 1 g) adiabatic calorimetry | 380.54 ± 2.6
274.47 K, Crystal 1, Small (less than 1 g) adiabatic calorimetry | 383.84 ± 2.6
275.53 K, Crystal 1, Small (less than 1 g) adiabatic calorimetry | 385.34 ± 2.7
276.08 K, Crystal 1, Small (less than 1 g) adiabatic calorimetry | 388.45 ± 2.8
276.58 K, Crystal 1, Small (less than 1 g) adiabatic calorimetry | 389.76 ± 2.7
277.62 K, Crystal 1, Small (less than 1 g) adiabatic calorimetry | 392.5 ± 2.7
278.67 K, Crystal 1, Small (less than 1 g) adiabatic calorimetry | 396.43 ± 2.8
279.42 K, Crystal 1, Small (less than 1 g) adiabatic calorimetry | 397.42 ± 2.7
279.7 K, Crystal 1, Small (less than 1 g) adiabatic calorimetry | 398.5 ± 2.8
280 K, Crystal 1, Vacuum adiabatic calorimetry | 397.19 ± 2.5
281.47 K, Crystal 1, Small (less than 1 g) adiabatic calorimetry | 402.8 ± 2.8
282.22 K, Crystal 1, Small (less than 1 g) adiabatic calorimetry | 405.47 ± 2.9
282.99 K, Crystal 1, Small (less than 1 g) adiabatic calorimetry | 408.97 ± 3
283.75 K, Crystal 1, Small (less than 1 g) adiabatic calorimetry | 414.38 ± 3.3
284.5 K, Crystal 1, Small (less than 1 g) adiabatic calorimetry | 422.32 ± 4.1
285.25 K, Crystal 1, Small (less than 1 g) adiabatic calorimetry | 436.88 ± 7.6
285.98 K, Crystal 1, Small (less than 1 g) adiabatic calorimetry | 474.25 ± 11

Liquid
Conditions | molar heat capacity at constant pressure [J/K/mol]
289.24 K, Small (less than 1 g) adiabatic calorimetry | 479.05 ± 3.3
289.97 K, Small (less than 1 g) adiabatic calorimetry | 476.93 ± 3.2
290 K, Vacuum adiabatic calorimetry | 473.62 ± 2.9
290.7 K, Small (less than 1 g) adiabatic calorimetry | 476.25 ± 3.2
291.67 K, Small (less than 1 g) adiabatic calorimetry | 476.45 ± 3.2
291.8 K, Small (less than 1 g) adiabatic calorimetry | 475.34 ± 3.2
293.12 K, Small (less than 1 g) adiabatic calorimetry | 477.07 ± 3.2
294.48 K, Small (less than 1 g) adiabatic calorimetry | 476.74 ± 3.2
295.04 K, Small (less than 1 g) adiabatic calorimetry | 477.7 ± 3.2
297.17 K, Small (less than 1 g) adiabatic calorimetry | 477.75 ± 3.3
297.43 K, Small (less than 1 g) adiabatic calorimetry | 478.84 ± 3.4
298.15 K, Vacuum adiabatic calorimetry | 478.16 ± 2.9
299.87 K, Small (less than 1 g) adiabatic calorimetry | 478.89 ± 3.2
300 K, Vacuum adiabatic calorimetry | 478.96 ± 2.9
302.6 K, Small (less than 1 g) adiabatic calorimetry | 480.42 ± 3.2
305.34 K, Small (less than 1 g) adiabatic calorimetry | 481.47 ± 3.3
308.1 K, Small (less than 1 g) adiabatic calorimetry | 482.84 ± 3.3
310 K, Vacuum adiabatic calorimetry | 483.98 ± 3
310.87 K, Small (less than 1 g) adiabatic calorimetry | 484.5 ± 3.3
313.66 K, Small (less than 1 g) adiabatic calorimetry | 486.08 ± 3.3
316.47 K, Small (less than 1 g) adiabatic calorimetry | 487.53 ± 3.3
319.29 K, Small (less than 1 g) adiabatic calorimetry | 489.61 ± 3.3
320 K, Vacuum adiabatic calorimetry | 490.09 ± 3
322.13 K, Small (less than 1 g) adiabatic calorimetry | 491.52 ± 3.3
324.98 K, Small (less than 1 g) adiabatic calorimetry | 493.16 ± 3.3
327.85 K, Small (less than 1 g) adiabatic calorimetry | 495.06 ± 3.4
330 K, Vacuum adiabatic calorimetry | 496.49 ± 3
330.74 K, Small (less than 1 g) adiabatic calorimetry | 496.98 ± 3.4
333.64 K, Small (less than 1 g) adiabatic calorimetry | 498.96 ± 3.4
336.55 K, Small (less than 1 g) adiabatic calorimetry | 500.86 ± 3.4
339.48 K, Small (less than 1 g) adiabatic calorimetry | 502.59 ± 3.4
340 K, Vacuum adiabatic calorimetry | 502.96 ± 3.1
342.43 K, Small (less than 1 g) adiabatic calorimetry | 504.71 ± 3.4
345.39 K, Small (less than 1 g) adiabatic calorimetry | 506.48 ± 3.4
348.36 K, Small (less than 1 g) adiabatic calorimetry | 508.66 ± 3.4
350 K, Vacuum adiabatic calorimetry | 509.84 ± 3.1
351.35 K, Small (less than 1 g) adiabatic calorimetry | 510.81 ± 3.5
354.35 K, Small (less than 1 g) adiabatic calorimetry | 513 ± 3.5
357.37 K, Small (less than 1 g) adiabatic calorimetry | 514.97 ± 3.5
360.4 K, Small (less than 1 g) adiabatic calorimetry | 517.24 ± 3.5
